Laboratory results reported in ChEMBL document CHEMBL3232872, “Cytotoxic constituents from Lobaria scrobiculata and a comparison of two bioassays for their evaluation” (J Nat Prod, 2014).
Calls of active or inactive are those of the source. The rule behind the calls is not given here.

What was measured:
[1] = tested on: HL-60; test: Cytotoxicity against human HL60 cells after 24 hrs by WST-1 assay; type: functional, cell-based; conditions: HL-60, 24 h
[2] = tested on: HL-60; test: Cytotoxicity against human HL60 cells after 48 hrs by WST-1 assay; type: functional, cell-based; conditions: HL-60, 48 h
[3] = tested on: HeLa; test: Cytotoxicity against human HeLa cells after 24 hrs by WST-1 assay; type: functional, cell-based
[4] = tested on: HeLa; test: Cytotoxicity against human HeLa cells after 48 hrs by WST-1 assay; type: functional, cell-based
[5] = tested on: Vero; test: Cytotoxicity against African green monkey Vero cells after 24 hrs by Alamar Blue assay; type: cell-based; conditions: Chlorocebus sabaeus
[6] = tested on: Vero; test: Cytotoxicity against African green monkey Vero cells after 48 hrs by Alamar Blue assay; type: cell-based; conditions: Chlorocebus sabaeus
[7] = tested on: HL-60; test: Cytotoxicity against human HL60 cells assessed as metabolic activity at 50 ug/mL after 24 hrs by WST-1 assay; type: functional, cell-based
[8] = tested on: HL-60; test: Cytotoxicity against human HL60 cells assessed as decrease in cell viability at 50 ug/mL after 24 hrs by trypan blue assay; type: functional, cell-based
[9] = Chemical stability of the compound in methanol measured immediately post compound addition by LC-MS analysis; type: physicochemical; conditions: read-out: Stability
[10] = Chemical stability of the compound in methanol measured at 24 hrs by LC-MS analysis; type: physicochemical; conditions: read-out: Stability
[11] = Chemical stability of the compound in methanol measured at 48 hrs by LC-MS analysis; type: physicochemical; conditions: read-out: Stability
[12] = Chemical stability of the compound in methanol measured at 72 hrs by LC-MS analysis; type: physicochemical; conditions: read-out: Stability
[13] = Drug degradation in methanol assessed as 2,3,4 trihydroxy-6-propylbenzoic acid methyl ester formation after 72 hrs by LC-MS analysis; type: physicochemical
[14] = tested on: HL-60; test: Cytotoxicity against human HL60 cells assessed as metabolic activity at 10 ug/mL measured over 72 hrs by WST-1 assay; type: functional, cell-based
[15] = tested on: HL-60; test: Cytotoxicity against human HL60 cells assessed as decrease in cell viability at 10 ug/mL measured over 72 hrs by trypan blue assay; type: functional, cell-based
[16] = Drug degradation in methanol assessed as divaricatinic acid methyl ester formation after 72 hrs by LC-MS analysis; type: physicochemical
[17] = tested on: HL-60; test: Cytotoxicity against human HL60 cells after 72 hrs; type: functional, cell-based; conditions: HL-60, 72 h

Structure (SMILES)	remaining at 0 h [9] [%]	remaining at 24 h [10] [%]	remaining at 48 h [11] [%]	remaining at 72 h [12] [%]	Stability [13]	Stability [16]	IC50 [1] [µM]	IC50 [2] [µM]	IC50 [3] [µM]	IC50 [4] [µM]	IC50 [5] [µM]	IC50 [6] [µM]	Activity [7]	Activity [8]	Activity [14]	Activity [15]	IC50 [17] [µM]
CCCc1cc(O)c(O)c(O)c1C(=O)OC	97.8	95	94.6	94.8			> 10	> 10	> 10	> 10	> 150	> 150					
CCCc1cc(OC)cc(O)c1C(=O)Oc1c(O)cc(CCC)c(C(=O)OC)c1O	99.8	63.8	35.3	22.1	Unstable	Unstable	> 10	7.6	> 10	> 10	> 150	> 150			Active	Active	
CCCc1cc(O)cc(O)c1C(=O)OC	99.8	99.9	99.9	99.9			> 10	> 10	> 10	> 10	> 150	> 150					

The next lines start with results.

remaining at 0 h [9] [%]	remaining at 24 h [10] [%]	remaining at 48 h [11] [%]	remaining at 72 h [12] [%]	Stability [13]	Stability [16]	Structure (SMILES)	IC50 [1] [µM]	IC50 [2] [µM]	IC50 [3] [µM]	IC50 [4] [µM]	IC50 [5] [µM]	IC50 [6] [µM]	Activity [7]	Activity [8]	Activity [14]	Activity [15]	IC50 [17] [µM]
89.7	90.1	91.8	91.8			COc1cc(C)c2c(c1C=O)Oc1c(c(C)c(O)c3c1C(O)OC3=O)OC2=O (centres undefined) [STICTIC ACID]	> 10	> 10	> 10	> 10	> 150	> 150	inactive	Active			
94.1	88.5	89.6	89.5			COc1cc(C)c2c(c1C=O)Oc1c(C=O)c(C(=O)O)c(O)c(C)c1OC2=O	> 10	> 10	> 10	> 10	> 150	> 150	inactive	Active			
99.9	99.9	99.9	99.9			CC(=O)C1=C(O)C=C2Oc3c(C(C)=O)c(O)c(C)c(O)c3[C@@]2(C)C1=O [(+)-USNIC ACID]	5.4	1.7	> 10	> 10	> 150	> 150					48.5
